Assay [1] concerns AsPC-1 cells containing homozygous KRAS-G12D activating mutation. Description: Cellular phospho-ERK assay (Examples 1a-106). The class given is cell-based. Conditions: AsPC-1 cells, 2 hours, ratio of p-Erk vs total Erk; read-out: IC50 (nM) pERK (Cell). The text has this: 5% CO? overnight. […] Assay plates were read on a EnVision Multimode Plate Reader (PerkinElmer) and the ratio of p-Erk vs total Erk in each well was used as the final readout.

In assay [2] the target is KRAS protein containing G12D mutation (Homo sapiens (Human), UniProt P01116, G12D). Nature of the assay: SOS-catalyzed nucleotide exchange assay (GNE), TR-FRET. Type of assay: biochemical. Conditions: biotinylated KRAS G12D, SOS and GTP, 60-minute incubation. The procedure: Compounds are added to this complex and then after a 60-minute incubation time the mixture is treated with SOS and unlabeled GTP. Small molecule inhibitors stabilize the Bodipy-GDP complex whereas the untreated protein rapidly exchanges Bodipy-GDP for unlabeled GTP resulting in reduced TR-FRET signal.
Chain of KRAS protein containing G12D mutation (P01116 other isoform, or with tags, fused parts or gaps G12D (already in the parent)): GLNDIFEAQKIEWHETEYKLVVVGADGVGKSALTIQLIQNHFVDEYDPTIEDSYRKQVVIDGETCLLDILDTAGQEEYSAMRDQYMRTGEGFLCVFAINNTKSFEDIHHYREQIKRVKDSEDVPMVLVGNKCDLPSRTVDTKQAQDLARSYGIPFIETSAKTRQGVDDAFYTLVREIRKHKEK
This solution is referred to as biotinylated KRAS G12D stock solution.
For orientation: In TR-FRET formats the signal depends on donor and acceptor labels being close together.

For assay [3], the system named is AsPC-1 cells containing homozygous KRAS-G12D activating mutation. Description: Cellular phospho-ERK assay with 10% FBS (Examples 107a-256). Type of assay: cell-based. The procedure: 5% CO2 for 2 hours. […] Assay plates were read on a EnVision Multimode Plate Reader (PerkinElmer) and the ratio of p-Erk vs total Erk in each well was used as the final readout.
[4] abbreviates: Homo sapiens, ASPC1, 2 h, read-out: IC50 (nM) pERK (cell with FBS 10%), AsPC-1 cells, 10% fetal bovine serum, 2 hours, ratio of p-Erk vs total Erk.
[5] abbreviates: read-out: IC50 (nM) pERK (cell with FBS 10%), AsPC-1 cells, 10% fetal bovine serum, 2 hours, ratio of p-Erk vs total Erk.

Where a name gives a salt, the structure may show the parent alone.

On to `OCC1(COc2nc(N3CC4CCC(C3)N4)c3cc(F)c(-c4cc(O)cc5ccccc45)c(F)c3n2)CNC1` [Ex. 4, 4-(4-(3.8-diazabicyclo[3.2.1]octan-3-yl)-6,8-difluoro-2-((3-(hydroxymethyl)azetidin-3-yl)methoxy)quinazolin-7-yl)naphthalen-2-ol], for which the values for the IC50 in assay [1] and in assay [2] were 50800 nM and 169 nM, respectively.

Take `CN(C)C1CC[C@H]2C[C@@]12COc1nc(N2C[C@H]3CC[C@@](C)(C2)N3)c2cc(F)c(-c3cc(O)cc4ccccc34)c(F)c2n1` (single isomer, unassigned) [Example 12a]: the IC50 in assay [1] worked out at 396 nM; in assay [2] it was 1.89 nM.

With `CC(Oc1nc(N2C[C@H]3CC[C@@](C)(C2)N3)c2cc(F)c(-c3cc(O)cc4cccc(Cl)c34)c(F)c2n1)[C@]1(C)CCCN1` (mixture of isomers) [Ex. 164, 5-chloro-4-(6,8-difluoro-4-((1S,5R)-1-methyl-3,8-diaza-bicyclo-[3.2.1]octan-3-yl)-2-(1-((S)-2-methyl-pyrrolidin-2-yl)ethoxy)-quinazolin-7-yl)naph-thalen-2-ol, TFA], the IC50 in assay [2] came to 562 nM; in assay [3] (setting [4]), 29300 nM.

Regarding `C[C@@]12CC[C@H](CN(c3nc(OC[C@@]45CCCN4C[C@H](F)C5)nc4c(F)c(-c5cc(O)cc6cccc(F)c56)c(F)cc34)C1)N2` (single isomer, unassigned) [Ex. 186a], the IC50 in assay [2] was 1.49 nM; in assay [3] (setting [5]), 180 nM.

With `COCC1CCN(C[C@@]2(COc3nc(N4CC5CC[C@@](C)(C4)N5)c4cc(F)c(-c5cc(O)cc6cccc(Cl)c56)c(F)c4n3)CC2(F)F)C1` (single isomer, unassigned) [Ex. 214a], the IC50 amounted to 4.95 nM in assay [2] and 3710 nM in assay [3] (setting [5]).

On to `Cc1nc(N)c(F)c(-c2c(F)cc3c(N4CC5CCC(C4)N5)nc(OC[C@@]45CCCN4C[C@H](F)C5)nc3c2F)c1C(F)(F)F` (single isomer, unassigned) [Ex. 151b], for which the figures for the IC50 in assay [2] and in assay [3] (setting [5]) were 21.6 nM and 278 nM, respectively.

Consider `Fc1cc2c(N3C[C@H]4CC[C@@H](C3)N4)nc(OC[C@@]34CCCN3C[C@H](F)C4)nc2c(F)c1-c1ccnc2cccc(Cl)c12` [Ex. 194, 4-((1R,5S)-3,8-diaza-bicyclo[3.2.1]octan-3-yl)-7-(5-chloroquinolin-4-yl)-6,8-difluoro-2-(((2R,7aS)-2-fluoro-tetrahydro-1H-pyrrol-izin-7a(5H)-yl)meth-oxy)quinazoline], for which the IC50 came to 1920 nM in assay [2] and 11800 nM in assay [3] (setting [4]).

Take `Cc1cc(N)nc(-c2c(F)cc3c(N4CC5CCC(C4)N5)nc(OC[C@@]45CCCN4C[C@H](F)C5)nc3c2F)c1C(F)(F)F` (mixture of isomers) [Ex. 193, 6-(4-((1R,5S)-3,8-diazabicyclo[3.2.1]-octan-3-yl)-6,8-difluoro-2-(((2R,7aS)-2-fluorotetrahydro-1H-pyrrolizin-7a(5H)-yl)methoxy)quinazo-lin-7-yl)-4-methyl-5-(trifluoromethyl)pyr-idin-2-amine]: the values for the IC50 in assay [2] and in assay [3] (setting [4]) were 10.3 nM and 187 nM, respectively.

Take `C#Cc1cccc2cc(O)c(F)c(-c3c(F)cc4c(N5CC6CC[C@@](C)(C5)N6)nc(OC[C@@]56CCCN5C[C@H](F)C6)nc4c3F)c12` (single isomer, unassigned) [Ex. 192b]: the IC50 was found to be 37 nM in assay [2] and 1570 nM in assay [3] (setting [5]).

For `N#Cc1c(N)sc2c(F)ccc(-c3c(F)cc4c(N5C[C@H]6CC[C@@H](C5)N6)nc(OC[C@@]56CCCN5C[C@H](F)C6)nc4c3F)c12` (single isomer, unassigned) [Ex. 144b], the IC50 in assay [2] stood at 20 nM; in assay [3] (setting [5]), 392 nM.

For `C[C@]12CC[C@H](CN(c3nc(OC[C@@]45CCCN4C[C@H](F)C5)nc4c(F)c(-c5cc(O)cc(Cl)c5Cl)c(F)cc34)C1)N2` (single isomer, unassigned) [Ex. 129a, HCl], the IC50 in assay [2] came to 17.7 nM; in assay [3] (setting [4]) it was 2810 nM.

Consider `Nc1cc(-c2c(Cl)cc3c(N4CC5CCC(C4)N5)nc(OC[C@@]45CCCN4C[C@H](F)C5)nc3c2F)c(C(F)(F)F)c(Cl)n1` (single isomer, unassigned) [Ex. 155b], for which the IC50 in assay [2] turned out to be 2.33 nM; in assay [3] (setting [4]) it was 144 nM.

Turning to `C[C@]12CCC(CN(c3nc(OC[C@]4(CN[C@@H]5CC[C@H](O)C5)CC4(F)F)nc4c(F)c(-c5cc(O)cc6cccc(Cl)c56)c(F)cc34)C1)N2` (single isomer, unassigned) [Ex. 219b], the IC50 in assay [2] worked out at 627 nM; in assay [3] (setting [5]), 9380 nM.

As to `C[C@]12CCC(CN(c3nc(OC[C@@]45CCCN4C[C@H](F)C5)nc4c(F)c(-c5cc(O)cc6cccc(Cl)c56)c(F)c(F)c34)C1)N2` [Ex. 172, 5-chloro-4-(5,6,8-trifluoro-2-(((2R,7aS)-2-fluorotetrahydro-1H-pyrrolizin-7a(5H)-yl)-methoxy)-4-((1S,5R)-1-methyl-3,8-diaza-bicyclo[3.2.1]octan-3-yl)quinazolin-7-yl)-naphthalen-2-ol, 2TFA], the IC50 in assay [2] was determined as 17.1 nM; in assay [3] (setting [4]) it was 3500 nM.

Regarding `Nc1cnc(C(F)(F)F)c(-c2c(F)cc3c(N4C[C@H]5CC[C@@H](C4)N5)nc(OC[C@@]45CCCN4C[C@H](F)C5)nc3c2F)n1` [Ex. 134, 6-(4-((1R,5S)-3,8-diazabicyclo[3.2.1]octan-3-yl)-6,8-difluoro-2-(((2R,7aS)-2-fluorotetrahydro-1H-pyrrolizin-7a(5H)-yl)methoxy)quinazolin-7-yl)-5-(trifluoromethyl)pyrazin-2-amine], the IC50 in assay [2] was determined as 870 nM; in assay [3] (setting [4]), 13600 nM.

On to `C[C@]12CCC(CN(c3nc(OC[C@]4(CN5CCC(CO)C5)CC4(F)F)nc4c(F)c(-c5cc(O)cc6cccc(Cl)c56)c(F)cc34)C1)N2` (mixture of isomers) [Ex. 218, 5-chloro-4-(2-(((1R)-2,2-difluoro-1-((3-(hydroxymethyl)pyrrolidin-1-)-methyl)cyclopropyl)methoxy)-6,8-difluoro-4-((1S,5R)-1-methyl-3,8-diazabicyclo[3.2.1]octan-3-yl)quinazolin-7-yl)naphthalen-2-ol], for which the IC50 is 6.54 nM in assay [2] and 1550 nM in assay [3] (setting [4]).

As for `C#Cc1cccc2cc(O)c(Cl)c(-c3c(F)cc4c(N5CC6CC[C@@](C)(C5)N6)nc(OC[C@@]56CCCN5C[C@H](F)C6)nc4c3F)c12` (single isomer, unassigned) [Ex. 143a], the IC50 in assay [2] stood at 0.86 nM; in assay [3] (setting [5]), 53.5 nM.

With `CN(C)C[C@@]1(COc2nc(N3C[C@H]4CC[C@@](C)(C3)N4)c3cc(C#N)c(-c4cc(O)cc5ccccc45)c(F)c3n2)CC1(F)F` [Ex. 136a, 2-(((R)-1-((dimethylamino)methyl)-2,2-difluorocyclopropyl)methoxy)-8-fluoro-7-(3-hydroxynaphthalen-1-yl)-4-((1S,5R)-1-methyl-3,8-diazabicyclo[3.2.]octan-3-yl)quinazoline-6-carbonitrile], the IC50 was determined as 4.93 nM in assay [2] and 645 nM in assay [3] (setting [5]).

As for `C#Cc1c(F)ccc2cccc(-c3c(F)cc4c(N5CC6CC[C@@](C)(C5)N6)nc(OCC56CCCN5C(COC(=O)N(C)C)CC6)nc4c3F)c12` (single isomer, unassigned) [242b], the IC50 in assay [2] turned out to be 93.5 nM; in assay [3] (setting [5]) it was 1080 nM.

Take `CN1CCC[C@H]1COc1nc(N2CC3CC[C@@](C)(C2)N3)c2cc(F)c(-c3cc(O)cc4ccccc34)c(F)c2n1` [Example 118, 4-(6,8-difluoro-4-((1S,5R)-1-methyl-3,8-diazabicyclo [3.2.1]octan-3-yl)-2-(((S)-1-ethylpyrrolidin-2-yl)methoxy)quinazolin-7-l)naphthalen-2-ol]: the IC50 was 82.6 nM in assay [2] and 1810 nM in assay [3] (setting [4]).

As for `Cc1cc2[nH]nc(C#N)c2c(-c2c(F)cc3c(N4C[C@H]5CC[C@@H](C4)N5)nc(OC[C@@]45CCCN4C[C@H](F)C5)nc3c2F)c1OC(F)(F)Cl` [compound 255, 4-(4-((1R,5S)-3,8-diazabicyclo[3.2.1]octan-3-yl)-6,8-difluoro-2-(((2R,7aS)-2-fluorotetrahydro-1H-pyrrolizin-7a(5H)-yl)methoxy)quinazolin-7-yl)-5-(chlorodifluoromethoxy)-6-methyl-1H-indazole-3-carbonitrile], the IC50 amounted to 0.79 nM in assay [2] and 58.9 nM in assay [3] (setting [4]).

For the molecule `Oc1cc(-c2c(F)cc3c(N4CC5CCC(C4)N5)nc(OC[C@@]45CCCN4C[C@H](F)C5)nc3c2F)c2c(Cl)cccc2c1` (single isomer, unassigned) [Ex. 160b], the IC50 in assay [2] came to 367 nM; in assay [3] (setting [5]), 12500 nM.

For `C[C@]12CC[C@H](CN(c3nc(OC[C@@]45CCCN4C[C@H](F)C5)nc4c(F)c(-c5cc(O)cc6cccc(C7CC7)c56)c(F)cc34)C1)N2` [Ex. 159, 5-cyclopropyl-4-(6,8-difluoro-2-(((2R)-2-fluorotetrahydro-1H-pyrrolizin-7a(5H)-yl)-methoxy)-4-((1S,5R)-1-methyl-3,8-diaza-bicyclo[3.2.1]octan-3-yl)quinazolin-7-yl)-naphthalen-2-ol], the results for the IC50 in assay [2] and in assay [3] (setting [4]) were 4.28 nM and 139 nM, respectively.

The record behind these values is US20240239788A1, “SMALL MOLECULE INHIBITORS OF KRAS G12D MUTANT” (Merck Sharp & Dohme LLC, priority 2021, published 2024).
